From PMC7738871, “Covalent modification of Keap1 at Cys77 and Cys434 by pubescenoside a suppresses oxidative stress-induced NLRP3 inflammasome activation in myocardial ischemia-reperfusion injury” (Theranostics, 2021)

What was measured:
OGD/R-induced H9c2 cells = assay: OGD/R-induced injury, MTT viability, H9c2; type: cell-based, rat; conditions: 100 μM, compared with PBA
Method: For OGD/R treatment, H9c2 cells were washed twice with phosphate buffered saline (PBS). The medium was changed to glucose and serum free DMEM, and H9c2 cells were incubated in an incubator with 95% N2 and 5% CO2 at 37 °C. After 6 h, the medium was replaced with DMEM containing 10% FBS and 1% PS. Then H9c2 cells were returned to a normal incubator with 5% CO2 balanced with air at 37 °C for the indicated time.
Cell viability was determined by MTT assays. PBA was prepared to a stock solution dissolved in dimethyl sulfoxide (DMSO). RAW264.7, H9c2 cells, primary mouse cardiomyocytes were treated with different doses of PBA, and DMSO only as control for 48 h for the toxicity. In addition, H9c2 cells or primary mouse cardiomyocytes were treated with the indicated doses of PBA, diazoxide as positive control, DMSO only as control, then cultured with or without OGD/R treatment. At the end of the experiments, MTT was added into each well at the concentration of 0.5 mg/ml, and incubated at 37 °C for 4 h. After removal of the supernatant, 150 μL of DMSO was added to solubilize the formazan products. And the solution was measured at the absorbance of 490 nm by a spectrophotometer (Thermo Fisher Scientific, MA, USA). The results of the MTT assay in all groups were normalized to the control group with DMSO only treatment.

[1] = system: Keap1-dependent Nrf2 ubiquitination; assay: Keap1-dependent Nrf2 ubiquitination in 293T cells; type: cell-based, human; conditions: WT Keap1, 30 μM PBA 20 h, 5 μM MG132 4 h
Method: Alkylation of the BTB domain of Keap1 by covalent modifiers contributes to the disruption of the Keap1-Cul3 interactions, leading to Nrf2 activation. Next, we investigated the effect of PBA on the modulation of Nrf2 ubiquitination as Nrf2 stability is controlled by ubiquitin-mediated proteasomal degradation. First, 3X Flag-Keap1, Myc-Nrf2 and Ub plasmids were transfected into 293T cells and then, the cells were treated with 30 μM PBA for 20 h and 5 μM MG132 for another 4 h. Cell lysates were pulled down using anti-Myc beads, and immunopurified Nrf2 was examined for the occurrence of Ub by western blotting. […] As shown in Figure 6E-F, PBA could disrupt the interaction of Keap1 and Cul3 in WT-Keap1 cells, while the disruption was blocked in the Cys77S and Cys434-Keap1 mutant cells.
Figure 6 PBA suppresses Keap1-mediated ubiquitination of Nrf2 by disrupting the interaction between Cul3 and Keap1. (A and B) PBA suppressed Nrf2 ubiquitination in a Keap1-Cys77 and C434-dependent manner. First, 293T cells were transfected with WT-Keap1 or C77S and C434S-Keap1, Myc-Nrf2, and Ub plasmids for 24 h and treated with 30 μM PBA. The cell lysates were immunoprecipitated using anti-Myc beads, and the ubiquitination level was evaluated using the anti-Ub antibody. (C and D) PBA induced the dissociation of the Nrf2-Keap1 complex. Then, 293T cells were cotransfected with WT-Keap1 and Flag-Nrf2 plasmids for 24 h and treated with 30 μM PBA for 12 h. The cell lysates were immunoprecipitated with the anti-Flag antibody, and the level of Nrf2 was assessed using the anti-Nrf2 antibody. (E and F) PBA disrupted the interaction between Cul3 and Keap1. […] The cell lysates were immunoprecipitated with the anti-Flag antibody, and the level of Cul3 was measured using the anti-Cul3 antibody. #p < 0.05, ##p < 0.01, ###p < 0.001, the control vs DMSO; *p < 0.05,**p < 0.01, ***p < 0.001, PBA or tBHQ vs DMSO. […] Cell viability was measured by MTT assays. #p < 0.05, ###p < 0.001, the control vs OGD/R; **p < 0.01, ***p < 0.001, OGD/R+PBA vs OGD/R.

[2] = system: T1, interaction between Keap1 and Nrf2; assay: Co-IP of Keap1 and Nrf2 in 293T cells; type: cell-based, human; conditions: WT-Keap1, 30 μM PBA
T1 construct: expressed in transfected cells; host or cells: 293T
Method: Figure 6 PBA suppresses Keap1-mediated ubiquitination of Nrf2 by disrupting the interaction between Cul3 and Keap1. (A and B) PBA suppressed Nrf2 ubiquitination in a Keap1-Cys77 and C434-dependent manner. First, 293T cells were transfected with WT-Keap1 or C77S and C434S-Keap1, Myc-Nrf2, and Ub plasmids for 24 h and treated with 30 μM PBA. The cell lysates were immunoprecipitated using anti-Myc beads, and the ubiquitination level was evaluated using the anti-Ub antibody. (C and D) PBA induced the dissociation of the Nrf2-Keap1 complex. Then, 293T cells were cotransfected with WT-Keap1 and Flag-Nrf2 plasmids for 24 h and treated with 30 μM PBA for 12 h. The cell lysates were immunoprecipitated with the anti-Flag antibody, and the level of Nrf2 was assessed using the anti-Nrf2 antibody. (E and F) PBA disrupted the interaction between Cul3 and Keap1. The 293T cells were transfected with the WT-Keap1 or C77S-C434S-Keap1 plasmids for 24 h and treated with 30 μM PBA for 12 h. The cell lysates were immunoprecipitated with the anti-Flag antibody, and the level of Cul3 was measured using the anti-Cul3 antibody. #p < 0.05, ##p < 0.01, ###p < 0.001, the control vs DMSO; *p < 0.05,**p < 0.01, ***p < 0.001, PBA or tBHQ vs DMSO. […] Primary mouse cardiomyocytes were transfected with mouse WT-Keap1 or C77S and C434S-Keap1 mutant vectors. After 24 h, the cells were treated with the indicated doses of PBA and subjected to OGD conditions as described in the Method section for 3 h and under normal conditions for another 18 h. Cell viability was measured by MTT assays. #p < 0.05, ###p < 0.001, the control vs OGD/R; **p < 0.01, ***p < 0.001, OGD/R+PBA vs OGD/R.
To investigate the effect of PBA on the interaction of Keap1 and Nrf2, we transfected 293T cells with Flag-Keap1 and Myc-Nrf2 plasmids, and treated them with 30 μM PBA for 24 h. The protein expression of Nrf2 was measured by western blotting analysis followed by immunoprecipitation with Flag beads.

Structure (SMILES)	protective effect against OGD/R induced injury (positive control) (OGD/R-induced H9c2 cells)	Keap1-dependent Nrf2 ubiquitination [1]	interaction between Keap1 and Nrf2 (Co-IP) [2]
CC1=NS(=O)(=O)c2cc(Cl)ccc2N1 [diazoxide, reference compound]	protective effect of PBA seemed equal to that of 100 μM diazoxide		
CC(C)(C)c1cc(O)ccc1O [tBHQ, reference compound]		significantly suppressed	did not affect it
